Patent publication US8802724B2, “Processes and intermediates for preparing substituted hexahydrofuro [2,3-b] furans” (Purdue Research Foundation, priority 2010, dated 2014)
Like-named read-outs stand apart in the source and are kept apart here.

Experiments:
HIV-1LAI = assay: Antiviral MTT assay, MT-2 cells exposed to HIV-1LAI; format: cell-based; settings: Human immunodeficiency virus 1, MT2
Method: As shown in Scheme 4, alcohols 14, 15, 20, and 21 were activated with p-nitrophenyl chloroformate to provide mixed activated carbonates 21a-d. These carbonates were reacted with amine 22 to afford HIV-1 protease inhibitors 23a-d. These inhibitors were evaluated for their activity in both enzyme inhibitory and antiviral assays. The enzyme inhibitory activity (Ki) was determined according to an assay protocol reported by Toth and Marshall (Toth, M. V.; Marshall, G. R. Int. J. Pep. Protein Res. 1990, 36, 544-550). […] Antiviral IC50 values were determined using the MTT assay (Koh, Y., et al., Antimicrob. Agents Chemother. 2003, 47, 3123-3129.).

HIV-1 protease = HIV-1 protease (Human immunodeficiency virus type 1 group M subtype B (isolate HXB2) (HIV-1), UniProt P04585); assay: biochemical; settings: enzymatic inhibitory activity

Row | IC50 (HIV-1LAI; Human T-lymphoid (MT-2) cells exposed to 100 TCID50 of HIV-1LAI, MTT assay, means of at least three experiments, read-out: IC50) [nM] | SMILES | IC50 (HIV-1LAI) [nM] | Ki (HIV-1 protease) [nM]
1 |  | COc1ccc(S(=O)(=O)N(CC(C)C)C[C@@H](O)[C@H](Cc2ccccc2)NC(=O)O[C@H]2CO[C@H]3OC[C@@H](OC)[C@H]32)cc1 [Compound 23a, (3R,3aS,4S,6aR)-4-methoxyhexahydrofuro[2,3-b]furan-3-yl-(2S,3R)-3-hydroxy-4-(N-isobutyl-4-methoxyphenylsulfonamido)-1-phenylbutan-2-ylcarbamate] | 56 | 0.035
2 |  | COc1ccc(S(=O)(=O)N(CC(C)C)C[C@@H](O)[C@H](Cc2ccccc2)NC(=O)O[C@H]2CO[C@H]3OC[C@@H](OCc4ccccc4)[C@H]32)cc1 [Compound 23b, (3R,3aS,4S,6aR)-4-(benzyloxy)hexahydrofuro[2,3-b]furan-3-yl-(2S,3R)-3-hydroxy-4-(N-isobutyl-4-methoxyphenylsulfonamido)-1-phenylbutan-2-ylcarbamate] | 335 | 0.073
3 |  | COc1ccc(S(=O)(=O)N(CC(C)C)C[C@@H](O)[C@H](Cc2ccccc2)NC(=O)O[C@H]2CO[C@H]3OC[C@H](OC)[C@H]32)cc1 [Compound 23c, (3R,3aS,4R,6aR)-4-methoxyhexahydrofuro[2,3-b]furan-3-yl-(2S,3R)-3-hydroxy-4-(N-isobutyl-4-methoxyphenylsulfonamido)-1-phenylbutan-2-ylcarbamate] | 2.4 | 0.0029
4 |  | COc1ccc(S(=O)(=O)N(CC(C)C)C[C@@H](O)[C@H](Cc2ccccc2)NC(=O)O[C@H]2CO[C@H]3OC[C@H](OCc4ccccc4)[C@H]32)cc1 [Compound 23d, (3R,3aS,4R,6aR)-4-(benzyloxy)hexahydrofuro[2,3-b]furan-3-yl-(2S,3R)-3-hydroxy-4-(N-isobutyl-4-methoxyphenylsulfonamido)-1-phenylbutan-2-ylcarbamate] |  | 0.3
5 | 1.4 | COc1ccc(S(=O)(=O)N(CC(C)C)C[C@@H](O)[C@H](Cc2ccccc2)NC(=O)O[C@H]2CO[C@H]3OCC[C@H]32)cc1 [Entry 1, reference compound] |  | 
